Source: US9572895B2, “Multiplexed supramolecular assemblies for non-viral delivery of genetic material” (The Board of Trustees of the University of Illinois, priority 2010, dated 2017)

Test system: plasmid DNA
Assay: Gel retardation assay on plasmid DNA
Type: binding
Settings: various agent:DNA mass ratios, 1% agarose gel
Procedure: A solution of DNA (1 μg/10 μL) was prepared in doubled distilled water. Appropriate amounts of spermine, DOS or oligoarginine dissolved in double distilled water were added to the DNA solution (10 μL) to achieve the desired spermine:DNA, DOS:DNA or Arg9:DNA weight ratio (FIGS. 6 and 7). Complexes were incubated at room temperature for 15 min, after which loading dye was added and the solution (10 μL) was run on a 1% agarose gel (70 V, 70 min). DNA was stained with ethidium bromide and visualized on a Gel Doc imaging system (Biorad, Herclues, Calif.).

For “H-Arg-Arg-Arg-Arg-Arg-Arg-Arg-Arg-Arg-OH trifluoroacetate salt [Arg9]”, the “electrostatic interaction with plasmid DNA (gel retardation)” value was “confirming the electrostatic interaction”.
